Assay results as given in ChEMBL document CHEMBL1133214, “Novel nikkomycin analogues: inhibitors of the fungal cell wall biosynthesis enzyme chitin synthase” (Bioorg Med Chem Lett, 2000).
Converted amounts (≈) assume the structure as drawn. One block for each compound: values may come before it.

How the values were obtained:
Candida albicans = assay: Percent inhibition rate of 100 ug/mL against chitin synthase isolated from Candida albicans.
[1] = Inhibition of chitin synthase isolated from Candida Albicans.

Rate (Candida albicans): 82%
IC50 [1]: 19.8 µg/mL (≈ 45.5 µM)
SMILES: N[C@@H](Cc1cccnc1)C(=O)N[C@H](C(=O)O)[C@H]1O[C@@H](n2ccc(=O)[nH]c2=O)[C@H](O)C1O (single isomer, unassigned)

Rate (Candida albicans): 73%
IC50 [1]: 36 µg/mL (≈ 74.5 µM)
SMILES: N[C@@H](CSc1ccc(O)cn1)C(=O)N[C@H](C(=O)O)[C@H]1O[C@@H](n2ccc(=O)[nH]c2=O)[C@H](O)C1O (single isomer, unassigned)

Rate (Candida albicans): 65%
SMILES: CC(=O)NCSC[C@H](N)C(=O)N[C@H](C(=O)O)[C@H]1O[C@@H](n2ccc(=O)[nH]c2=O)[C@H](O)C1O (single isomer, unassigned)

Rate (Candida albicans): 22%
SMILES: CC(C)=CCC/C(C)=C/CSC[C@H](N)C(=O)N[C@H](C(=O)O)[C@H]1O[C@@H](n2ccc(=O)[nH]c2=O)[C@H](O)C1O (single isomer, unassigned)

Rate (Candida albicans): 67%
SMILES: N[C@@H](CSCC1CCCCC1)C(=O)N[C@H](C(=O)O)[C@H]1O[C@@H](n2ccc(=O)[nH]c2=O)[C@H](O)C1O (single isomer, unassigned)

Rate (Candida albicans): 78%
SMILES: N[C@@H](CSCc1ccccc1)C(=O)N[C@H](C(=O)O)[C@H]1O[C@@H](n2ccc(=O)[nH]c2=O)[C@H](O)C1O (single isomer, unassigned)

Rate (Candida albicans): 44%
SMILES: N[C@@H](CSc1ccc(O)cc1)C(=O)N[C@H](C(=O)O)[C@H]1O[C@@H](n2ccc(=O)[nH]c2=O)[C@H](O)C1O (single isomer, unassigned)

Rate (Candida albicans): 48%
SMILES: N[C@@H](CSc1ccccn1)C(=O)N[C@H](C(=O)O)[C@H]1O[C@@H](n2ccc(=O)[nH]c2=O)[C@H](O)C1O (single isomer, unassigned)

Rate (Candida albicans): 42%
SMILES: Nc1ccc(SC[C@H](N)C(=O)N[C@H](C(=O)O)[C@H]2O[C@@H](n3ccc(=O)[nH]c3=O)[C@H](O)C2O)nc1 (single isomer, unassigned)

The next lines start with the compound.

SMILES: N[C@@H](Cc1cccc2ccccc12)C(=O)N[C@H](C(=O)O)[C@H]1O[C@@H](n2ccc(=O)[nH]c2=O)[C@H](O)C1O (single isomer, unassigned)
Rate (Candida albicans): 99%
IC50 [1]: 4.69 µg/mL (≈ 9.68 µM)

SMILES: CC(C)(SCc1cccc(O)c1)[C@H](N)C(=O)N[C@H](C(=O)O)[C@H]1O[C@@H](n2ccc(=O)[nH]c2=O)[C@H](O)C1O (single isomer, unassigned)
Rate (Candida albicans): 100%
IC50 [1]: 4.91 µg/mL (≈ 9.36 µM)

SMILES: CC(C)(SCc1ccccc1)[C@H](N)C(=O)N[C@H](C(=O)O)[C@H]1O[C@@H](n2ccc(=O)[nH]c2=O)[C@H](O)C1O (single isomer, unassigned)
Rate (Candida albicans): 97%
IC50 [1]: 9.83 µg/mL (≈ 19.3 µM)

SMILES: N[C@@H](Cc1cc2ccccc2c2ccccc12)C(=O)N[C@H](C(=O)O)[C@H]1O[C@@H](n2ccc(=O)[nH]c2=O)[C@H](O)C1O (single isomer, unassigned)
Rate (Candida albicans): 99%
IC50 [1]: 0.31 µg/mL (≈ 0.58 µM)

SMILES: CC(C)(SCc1ccccc1O)[C@H](N)C(=O)N[C@H](C(=O)O)[C@H]1O[C@@H](n2ccc(=O)[nH]c2=O)[C@H](O)C1O (single isomer, unassigned)
Rate (Candida albicans): 88%
IC50 [1]: 13.8 µg/mL (≈ 26.3 µM)

SMILES: CC(C)(SCc1ccc(O)cc1)[C@H](N)C(=O)N[C@H](C(=O)O)[C@H]1O[C@@H](n2ccc(=O)[nH]c2=O)[C@H](O)C1O (single isomer, unassigned)
Rate (Candida albicans): 99%
IC50 [1]: 5.89 µg/mL (≈ 11.2 µM)

SMILES: N[C@@H](Cc1ccc2ccccc2c1)C(=O)N[C@H](C(=O)O)[C@H]1O[C@@H](n2ccc(=O)[nH]c2=O)[C@H](O)C1O (single isomer, unassigned)
Rate (Candida albicans): 96%
IC50 [1]: 6.43 µg/mL (≈ 13.3 µM)

SMILES: N[C@@H](CSc1ccc(C(=O)O)cn1)C(=O)N[C@H](C(=O)O)[C@H]1O[C@@H](n2ccc(=O)[nH]c2=O)[C@H](O)C1O (single isomer, unassigned)
Rate (Candida albicans): 64%
IC50 [1]: 52.5 µg/mL (≈ 103 µM)

SMILES: N[C@@H](Cc1ccc(O)cc1)C(=O)N[C@H](C(=O)O)[C@H]1O[C@@H](n2ccc(=O)[nH]c2=O)[C@H](O)C1O (single isomer, unassigned)
Rate (Candida albicans): 99%
IC50 [1]: 4.83 µg/mL (≈ 10.7 µM)

SMILES: CC(C)(SCc1ccc2ccccc2c1)[C@H](N)C(=O)N[C@H](C(=O)O)[C@H]1O[C@@H](n2ccc(=O)[nH]c2=O)[C@H](O)C1O (single isomer, unassigned)
Rate (Candida albicans): 94%
IC50 [1]: 1.42 µg/mL (≈ 2.54 µM)

SMILES: CC(C)(SCc1ccc(O)cn1)[C@H](N)C(=O)N[C@H](C(=O)O)[C@H]1O[C@@H](n2ccc(=O)[nH]c2=O)[C@H](O)C1O (single isomer, unassigned)
Rate (Candida albicans): 58%

SMILES: CCCCCCCCCCCCSC[C@H](N)C(=O)N[C@H](C(=O)O)[C@H]1O[C@@H](n2ccc(=O)[nH]c2=O)[C@H](O)C1O (single isomer, unassigned)
Rate (Candida albicans): 64%

SMILES: N[C@@H](CSc1ccc2ccccc2c1)C(=O)N[C@H](C(=O)O)[C@H]1O[C@@H](n2ccc(=O)[nH]c2=O)[C@H](O)C1O (single isomer, unassigned)
Rate (Candida albicans): 40%

SMILES: N[C@@H](Cc1ccc(O)cn1)C(=O)N[C@H](C(=O)O)[C@H]1O[C@@H](n2ccc(=O)[nH]c2=O)[C@H](O)C1O (single isomer, unassigned)
Rate (Candida albicans): 34%

SMILES: C[C@@H]([C@H](N)C(=O)N[C@H](C(=O)O)[C@H]1O[C@@H](n2ccc(=O)[nH]c2=O)[C@H](O)C1O)[C@H](O)c1ccc(O)cn1 (single isomer, unassigned) [NIKKOMYCIN]
IC50 [1]: 0.393 µg/mL (≈ 0.793 µM)
